Data published in the Kinase Knowledgebase extract (Sharma et al. 2016).
pKi: −log10 of the molar value.

target: CDK2 (human) (UniProt P24941); experiment: Enzyme Assay; conditions: not given

With `Nc1nc(NC2CCN(S(=O)(=O)CCCn3cncn3)CC2)sc1C(=O)c1c(F)cccc1F` the pKi was 8.36.

same assay, conditions: concentration not given here

Compared with `CCOC(=O)CCC(=O)N1CCC(Nc2nc(N)c(C(=O)c3c(F)cccc3F)s2)CC1`, `COC(=O)CCC(=O)N1CCC(Nc2nc(N)c(C(=O)c3c(F)cccc3F)s2)CC1` is lower in inhibition: 54% for the first, 12% for the second.

Going from `Nc1nc(NC2CCN(C(=O)c3ccccc3COC(=O)c3ccccc3)CC2)sc1C(=O)c1c(F)cccc1F` to `Nc1nc(NC2CCN(C(=O)C(c3ccccc3)c3ccccc3)CC2)sc1C(=O)c1c(F)cccc1F`, the inhibition falls from -9% to -34%.

Going from `CCCCc1ccc(C(=O)N2CCC(Nc3nc(N)c(C(=O)c4c(F)cccc4F)s3)CC2)nc1` to `Cc1cccc(C(=O)N2CCC(Nc3nc(N)c(C(=O)c4c(F)cccc4F)s3)CC2)n1`, the inhibition rises from -45% to 60%.

Going from `CC(C)c1ccc(CC(=O)N2CCC(Nc3nc(N)c(C(=O)c4c(F)cccc4F)s3)CC2)cc1` to `Nc1nc(NC2CCN(C(=O)Cc3cccc(Cl)c3)CC2)sc1C(=O)c1c(F)cccc1F`, the inhibition falls from 85% to 62%.

Compared with `Nc1nc(NC2CCN(C(=O)c3ccc(CO)cc3)CC2)sc1C(=O)c1c(F)cccc1F`, `Cc1ccc(C(=O)N2CCC(Nc3nc(N)c(C(=O)c4c(F)cccc4F)s3)CC2)cc1` is higher in inhibition: 47% for the first, 60% for the second.

Going from `Cc1ccoc1C(=O)N1CCC(Nc2nc(N)c(C(=O)c3c(F)cccc3F)s2)CC1` to `Nc1nc(NC2CCN(C(=O)c3ccccn3)CC2)sc1C(=O)c1c(F)cccc1F`, the inhibition rises from 31% to 67%.

Compared with `Nc1nc(NC2CCN(C(=O)CCc3ccc(O)cc3)CC2)sc1C(=O)c1c(F)cccc1F`, `Cc1ccc(CCCC(=O)N2CCC(Nc3nc(N)c(C(=O)c4c(F)cccc4F)s3)CC2)cc1` is higher in inhibition: 13% for the first, 38% for the second.

Compared with `Nc1nc(NC2CCN(C(=O)COc3ccccc3)CC2)sc1C(=O)c1c(F)cccc1F`, `Nc1nc(NC2CCN(C(=O)Cc3ccccc3)CC2)sc1C(=O)c1c(F)cccc1F` is higher in inhibition: 59% for the first, 66% for the second.

Going from `Nc1nc(NC2CCN(C(=O)c3cc4cc(F)ccc4[nH]3)CC2)sc1C(=O)c1c(F)cccc1F` to `Nc1nc(NC2CCN(C(=O)c3cc(F)cc(F)c3)CC2)sc1C(=O)c1c(F)cccc1F`, the inhibition rises from 36% to 80%.

Compared with `C=CCC(=O)N1CCC(Nc2nc(N)c(C(=O)c3c(F)cccc3F)s2)CC1`, `Nc1nc(NC2CCN(C(=O)CCO)CC2)sc1C(=O)c1c(F)cccc1F` is higher in inhibition: 15% for the first, 39% for the second.

Compared with `Nc1nc(NC2CCN(C(=O)COc3ccc([N+](=O)[O-])cc3)CC2)sc1C(=O)c1c(F)cccc1F`, `Cc1cccc(OCC(=O)N2CCC(Nc3nc(N)c(C(=O)c4c(F)cccc4F)s3)CC2)c1` is higher in inhibition: 60% for the first, 70% for the second.

Compared with `CC1(C)C2CC[C@]1(CS(=O)(=O)N1CCC(Nc3nc(N)c(C(=O)c4c(F)cccc4F)s3)CC1)C(=O)C2`, `Nc1nc(NC2CCN(S(=O)(=O)c3cccc([N+](=O)[O-])c3)CC2)sc1C(=O)c1c(F)cccc1F` is lower in inhibition: -1% for the first, -23% for the second.

Going from `Nc1nc(NC2CCN(C(=O)CNc3ccccc3)CC2)sc1C(=O)c1c(F)cccc1F` to `N#Cc1ccc(NCC(=O)N2CCC(Nc3nc(N)c(C(=O)c4c(F)cccc4F)s3)CC2)cc1`, the inhibition falls from 57% to 22%.

Going from `COc1ccc(C(=O)N2CCC(Nc3nc(N)c(C(=O)c4c(F)cccc4F)s3)CC2)c(Cl)c1` to `COc1ccc(C(=O)N2CCC(Nc3nc(N)c(C(=O)c4c(F)cccc4F)s3)CC2)c(OC)c1`, the inhibition falls from 52% to -11%.

Compared with `COC(C(=O)N1CCC(Nc2nc(N)c(C(=O)c3c(F)cccc3F)s2)CC1)c1ccccc1` (centres undefined), `CC(C)C(C(=O)N1CCC(Nc2nc(N)c(C(=O)c3c(F)cccc3F)s2)CC1)c1ccccc1` (centres undefined) is higher in inhibition: 28% for the first, 29% for the second.

Compared with `C[C@@H](O)CC(=O)N1CCC(Nc2nc(N)c(C(=O)c3c(F)cccc3F)s2)CC1`, `CC(C)[C@@H](O)C(=O)N1CCC(Nc2nc(N)c(C(=O)c3c(F)cccc3F)s2)CC1` is lower in inhibition: 72% for the first, 34% for the second.

Compared with `Nc1nc(NC2CCN(S(=O)(=O)c3ccc(CNC(=O)c4ccc(O)cc4)s3)CC2)sc1C(=O)c1c(F)cccc1F`, `Nc1nc(NC2CCN(C(=O)C(O)Cc3ccc(O)cc3)CC2)sc1C(=O)c1c(F)cccc1F` (centres undefined) is lower in inhibition: 55% for the first, 34% for the second.

First: COC(=O)[C@H]1CC=CC[C@H]1C(=O)N1CCC(Nc2nc(N)c(C(=O)c3c(F)cccc3F)s2)CC1
Second: COC(=O)C(=O)N1CCC(Nc2nc(N)c(C(=O)c3c(F)cccc3F)s2)CC1
The inhibition of the first is higher: 22% for the first, -12% for the second.

Compared with `Nc1nc(NC2CCN(C(=O)COc3ccccc3O)CC2)sc1C(=O)c1c(F)cccc1F`, `Nc1nc(NC2CCN(C(=O)/C=C/c3ccccc3O)CC2)sc1C(=O)c1c(F)cccc1F` is higher in inhibition: 63% for the first, 74% for the second.

Compared with `COC(=O)CCCCC(=O)N1CCC(Nc2nc(N)c(C(=O)c3c(F)cccc3F)s2)CC1`, `CC(=O)CCCCC(=O)N1CCC(Nc2nc(N)c(C(=O)c3c(F)cccc3F)s2)CC1` is higher in inhibition: -5% for the first, 49% for the second.

Compared with `Nc1nc(NC2CCN(C(=O)Cc3ccc(O)c(F)c3)CC2)sc1C(=O)c1c(F)cccc1F`, `Nc1nc(NC2CCN(C(=O)c3ccc(F)c(Cl)c3)CC2)sc1C(=O)c1c(F)cccc1F` is lower in inhibition: 59% for the first, 48% for the second.

Compared with `Nc1nc(NC2CCN(S(=O)(=O)c3c(Cl)cc(C(F)(F)F)cc3Cl)CC2)sc1C(=O)c1c(F)cccc1F`, `CO[C@](C(=O)N1CCC(Nc2nc(N)c(C(=O)c3c(F)cccc3F)s2)CC1)(c1ccccc1)C(F)(F)F` is lower in inhibition: -23% for the first, -29% for the second.

Going from `Nc1nc(NC2CCN(C(=O)CCOc3ccc(F)cc3)CC2)sc1C(=O)c1c(F)cccc1F` to `Cc1ccccc1CCC(=O)N1CCC(Nc2nc(N)c(C(=O)c3c(F)cccc3F)s2)CC1`, the inhibition falls from 61% to 48%.

First: CSCCC(=O)N1CCC(Nc2nc(N)c(C(=O)c3c(F)cccc3F)s2)CC1
Second: CCCCC(=O)N1CCC(Nc2nc(N)c(C(=O)c3c(F)cccc3F)s2)CC1
The inhibition of the first is lower: 42% for the first, 48% for the second.

First: Nc1nc(NC2CCN(C(=O)C(O)c3c(F)cccc3F)CC2)sc1C(=O)c1c(F)cccc1F (centres undefined)
Second: Nc1nc(NC2CCN(C(=O)c3c(F)cccc3F)CC2)sc1C(=O)c1c(F)cccc1F
The inhibition of the first is higher: 54% for the first, -20% for the second.

First: CC(C)(C)C1CCC(C(=O)N2CCC(Nc3nc(N)c(C(=O)c4c(F)cccc4F)s3)CC2)CC1 (centres undefined)
Second: CCC[C@H]1CC[C@H](C(=O)N2CCC(Nc3nc(N)c(C(=O)c4c(F)cccc4F)s3)CC2)CC1
The inhibition of the first is lower: 34% for the first, 42% for the second.

Going from `Nc1nc(NC2CCN(C(=O)OCc3ccccc3)CC2)sc1C(=O)c1c(F)cccc1F` to `Nc1nc(NC2CCN(C(=O)CCCCc3ccccc3)CC2)sc1C(=O)c1c(F)cccc1F`, the inhibition rises from -32% to 36%.

First: C=CCSc1ncccc1C(=O)N1CCC(Nc2nc(N)c(C(=O)c3c(F)cccc3F)s2)CC1
Second: Nc1nc(NC2CCN(C(=O)c3cccnc3Sc3ccc(Cl)cc3)CC2)sc1C(=O)c1c(F)cccc1F
The inhibition of the first is higher: 48% for the first, -73% for the second.

First: Nc1nc(NC2CCN(C(=O)/C=C/c3ccc(F)cc3F)CC2)sc1C(=O)c1c(F)cccc1F
Second: Nc1nc(NC2CCN(C(=O)/C=C/c3ccccc3F)CC2)sc1C(=O)c1c(F)cccc1F
The inhibition of the first is lower: 28% for the first, 71% for the second.

First: Nc1nc(NC2CCN(C(=O)/C=C/c3ccccc3)CC2)sc1C(=O)c1c(F)cccc1F
Second: Cc1cccc(/C=C/C(=O)N2CCC(Nc3nc(N)c(C(=O)c4c(F)cccc4F)s3)CC2)c1
The inhibition of the first is lower: 47% for the first, 50% for the second.

Compared with `CCC(C)C(C(=O)N1CCC(Nc2nc(N)c(C(=O)c3c(F)cccc3F)s2)CC1)c1ccccc1` (centres undefined), `C[C@](O)(C(=O)N1CCC(Nc2nc(N)c(C(=O)c3c(F)cccc3F)s2)CC1)c1ccccc1` is higher in inhibition: 49% for the first, 77% for the second.

First: C/C=C/CCC(=O)N1CCC(Nc2nc(N)c(C(=O)c3c(F)cccc3F)s2)CC1
Second: CCN(CC)C(=O)N1CCC(Nc2nc(N)c(C(=O)c3c(F)cccc3F)s2)CC1
The inhibition of the first is higher: 71% for the first, -43% for the second.

First: Nc1nc(NC2CCN(C(=O)CCc3c[nH]c4ccccc34)CC2)sc1C(=O)c1c(F)cccc1F
Second: Nc1nc(NC2CCN(C(=O)c3ccc4ccccc4n3)CC2)sc1C(=O)c1c(F)cccc1F
The inhibition of the first is higher: 56% for the first, 9% for the second.

Compared with `Nc1nc(NC2CCN(C(=O)CSc3ccncc3)CC2)sc1C(=O)c1c(F)cccc1F`, `Nc1nc(NC2CCN(C(=O)COc3cccc(C=O)c3)CC2)sc1C(=O)c1c(F)cccc1F` is higher in inhibition: 23% for the first, 38% for the second.

Compared with `COc1ccc2oc(C(=O)N3CCC(Nc4nc(N)c(C(=O)c5c(F)cccc5F)s4)CC3)cc2c1`, `COc1cccc2cc(C(=O)N3CCC(Nc4nc(N)c(C(=O)c5c(F)cccc5F)s4)CC3)oc12` is higher in inhibition: 61% for the first, 77% for the second.

Compared with `COc1c(C)cc(C(=O)N2CCC(Nc3nc(N)c(C(=O)c4c(F)cccc4F)s3)CC2)cc1C`, `Cc1ccc(C(C)C)c(C(=O)N2CCC(Nc3nc(N)c(C(=O)c4c(F)cccc4F)s3)CC2)c1O` is lower in inhibition: 39% for the first, 30% for the second.

First: Cc1ccc(/C=C/C(=O)N2CCC(Nc3nc(N)c(C(=O)c4c(F)cccc4F)s3)CC2)c(C)c1
Second: Nc1nc(NC2CCN(C(=O)/C=C/c3ccccc3Cl)CC2)sc1C(=O)c1c(F)cccc1F
The inhibition of the first is lower: 31% for the first, 83% for the second.

First: CCC(C)(C)C(=O)N1CCC(Nc2nc(N)c(C(=O)c3c(F)cccc3F)s2)CC1
Second: CCOC(=O)C(=O)N1CCC(Nc2nc(N)c(C(=O)c3c(F)cccc3F)s2)CC1
The inhibition of the first is higher: 32% for the first, -13% for the second.

Compared with `COCCOC(=O)N1CCC(Nc2nc(N)c(C(=O)c3c(F)cccc3F)s2)CC1`, `CC(=O)N1CCC(C(=O)N2CCC(Nc3nc(N)c(C(=O)c4c(F)cccc4F)s3)CC2)CC1` is higher in inhibition: -11% for the first, 36% for the second.

Compared with `Nc1nc(NC2CCN(C(=O)c3ccc4ccccc4c3)CC2)sc1C(=O)c1c(F)cccc1F`, `NC(=O)Nc1ccc(C(=O)N2CCC(Nc3nc(N)c(C(=O)c4c(F)cccc4F)s3)CC2)cc1` is higher in inhibition: 38% for the first, 76% for the second.

First: Cc1nn(C)c2ncc(C(=O)N3CCC(Nc4nc(N)c(C(=O)c5c(F)cccc5F)s4)CC3)c(Cl)c12
Second: CN(C)N=Nc1ccccc1C(=O)N1CCC(Nc2nc(N)c(C(=O)c3c(F)cccc3F)s2)CC1
The inhibition of the first is lower: 16% for the first, 43% for the second.

Compared with `COc1ccc(C(O)C(=O)N2CCC(Nc3nc(N)c(C(=O)c4c(F)cccc4F)s3)CC2)cc1O` (centres undefined), `COc1ccccc1/C=C/C(=O)N1CCC(Nc2nc(N)c(C(=O)c3c(F)cccc3F)s2)CC1` is higher in inhibition: 58% for the first, 92% for the second.

Going from `CN(C)c1ccc(NC(=O)N2CCC(Nc3nc(N)c(C(=O)c4c(F)cccc4F)s3)CC2)cc1` to `Nc1nc(NC2CCN(C(=O)C3(c4ccc(Cl)cc4)CC3)CC2)sc1C(=O)c1c(F)cccc1F`, the inhibition falls from 23% to -1%.

Compared with `Nc1nc(NC2CCN(C(=O)/C=C/c3ccc4c(c3)CCC4)CC2)sc1C(=O)c1c(F)cccc1F`, `CC(=O)C(O)(C(=O)N1CCC(Nc2nc(N)c(C(=O)c3c(F)cccc3F)s2)CC1)c1ccccc1` (centres undefined) is lower in inhibition: 48% for the first, 26% for the second.
